Test results as given in patent EP0378755B1, “Heterocyclically substituted alpha-aryl acryl acid methyl esters and their use” (BASF Aktiengesellschaft, priority 1988, dated 1990).

Tests used:
Type in all cases: in vivo
Prodenia litura = Prodenia litura feeding test on dipped maize pieces; details: after 24 h
Procedure: Prodenia litura, ägypt. Baumwollwurm
Die Versuche wurden in 250 ml Plastikbechern durchgeführt. Dabei setzte man 2 Raupen in die Gefäße und bot Stücke von Maispflanzen, die man für 5 Sekunden in die wäßrige Wirkstoffaufbereitung getaucht hatte, als Futter an. Wirkstoffgehalt in ppm. Nach 24 Stunden beurteilte man die Mortalitätsrate in %.

Musca domestica = Musca domestica continuous contact test in glass dish; details: after 4 h
Procedure: Musca domestica (Stubenfliegen)
Versuchsart: Dauerkontakt
Beide Teile einer Glasschale von 10 cm Durchmesser wurden mit insgesamt 1 ml der acetonischen Lösung der Wirkstoffe benetzt. Wirkstoffgehalt der Lösung in ppm. Nach Verdunsten des Lösungsmittels brachte man je 10 Fliegen in die Schalen, schloß sie und zählte nach 4 Stunden die Tiere, die sich in Rückenlage befanden und bestimmte die Mortalitätsrate in %.

Plutella maculipennis = Plutella maculipennis contact test on dipped cabbage leaves; details: after 48 h, 4th instar larvae
Procedure: Plutella maculipennis (Kohlschabe)
(§1) Versuchsart: Kontaktwirkung
Junge Kohlblätter wurden 3 sec. in die wäßrige Aufbereitung der Prüfsubstanz getaucht (Wirkstoffgehalt in ppm) und auf einen mit 0,5 ml Wasser angefeuchteten Rundfilter (Φ 9 cm) in eine Glasschale gelegt (Φ 10 cm). Darauf wurde das Blatt mit 10 Raupen im 4. Larvenstadium besetzt und die Glasschale geschlossen. Nach 48 Stunden beurteilte man die Mortalität in %.

Ornithodorus moubata = Ornithodorus moubata (tick) contact test by dipping; details: after 48 h, ca. 25°C
Source text: Ornithodorus moubata (Zecke)
as §1
Verwendet wurden junge Zecken, die eine Blutmahlzeit hinter sich hatten (Durchmesser 1,5 bis 2 mm). Diese Tiere nahm man mit Hilfe eines Saugrohres einzeln auf, wobei eine starke Lichtquelle die aktiven Tiere aus den Häutungsresten trieb. Je 5 Zecken wurden in einem Papierbeutel für 5 Sekunden in die wäßrige Wirkstoffaufbereitung getaucht (Wirkstoffgehalt in ppm). Die Beutel hing man danach frei auf und ermittelte nach 48 Stunden die Wirkung. Dabei wurden die Beutel an eine starke Lichtquele (60 W-Birne) gehalten; die lebenden Tiere versuchten auszuweichen und waren leicht zu erkennen. Die Versuchstemperatur betrug ca. 25°C. Man bestimmte die Mortalität in %.

Tetranychus telarius = Tetranychus telarius contact test, spray test on bush beans; details: 120 h, after 5 days
Procedure: Tetranychus telarius, Rote Spinne, Kontaktwirkung, Spritzversuch
Buschbohnen in Töpfen, die das zweite Blattpaar zeigen, werden mit der wäßrigen Wirkstoffaufbereitung tropfnaß gespritzt. Die Pflanzen werden von allen Seiten mit insgesamt 50 ml Spritzbrühe besprüht. Die Pflanzen weisen einen starken Milbenbefall und reichliche Eiablage auf.
Die Wirkung wird nach 5 Tagen mittels Binokular ermittelt. Dabei wird darauf geachtet, ob alle Entwicklungsstadien der Tiere gleichmäßig erfaßt sind. Die Pflanzen stehen während der 5 Tage unter normalen Gewächshausbedingungen.

Plasmopara viticola = test: Efficacy against Plasmopara viticola on potted vine leaves, protective spray; details: 0,0125 gew.%ige Spritzbrühe; vines "Müller Thurgau"; infected 8 days after spraying
Source text: Wirksamkeit gegen Plasmopara viticola
Blätter von Topfreben der Sorte "Müller Thurgau" wurden mit wäßriger Spritzbrühe, die 80 % Wirkstoff und 20 % Emulgiermittel in der Trockensubstanz enthielt, besprüht. Um die Wirkungsdauer der Wirkstoffe beurteilen zu können, wurden die Pflanzen nach dem Antrocknen des Spritzbelages 8 Tage im Gewächshaus aufgestellt. Erst dann wurden die Blätter mit einer Zoosporenaufschwemmung von Plasmopara viticola (Rebenperonospora) infiziert. Danach wurden die Reben zunächst für 48 Stunden in einer wasserdampfgesättigten Kammer bei 24°C und anschließend für 5 Tage in einem Gewächshaus mit Temperaturen zwischen 20 und 30°C aufgestellt. Nach dieser Zeit wurden die Pflanzen zur Beschleunigung des Sporangienträgerausbruches abermals für 16 Stunden in der feuchten Kammer aufgestellt. Dann erfolgte die Beurteilung des Ausmaßes des Pilzausbruches auf den Blattunterseiten.

Pyrenophora teres = test: Efficacy against Pyrenophora teres on barley seedlings, protective spray; details: 0,0125 gew.%ige Spritzbrühe; barley "Igri"; inoculated 24 h after spraying
Procedure: Wirksamkeit gegen Pyrenophora teres
Gerstenkeimlinge der Sorte "Igri" wurden im Zweiblattstadium mit wäßrigen Suspensionen, die 80 % Wirkstoff und 20 % Emulgator in der Trockensubstanz enthielten, tropfnaß gespritzt. Nach 24 Stunden wurden die Pflanzen mit einer Sporensuspension des Pilzes Pyrenophora teres inokuliert und für 48 Stunden in eine Klimakammer mit hoher Luftfeuchtigkeit bei 18°C gestellt. Anschließend wurden die Pflanzen im Gewächshaus bei 20 bis 22°C und 70 % relativer Luftfeuchtigkeit für weitere 5 Tage kultiviert. Dann wurde das Ausmaß des Befalls ermittelt.

Septoria nodorum = test: Efficacy against Septoria nodorum on wheat plants, protective spray; details: 0,05 gew.%ige Spritzbrühe; wheat "Frühgold"; inoculated 20 h after spraying, assessed after one week
Procedure: Wirksamkeit gegen Septoria nodorum
Weizenpflanzen der Sorte "Frühgold" wurden im Ein-Blatt-Stadium mit wäßriger Wirkstoffaufbereitung, die 80 % Wirkstoff und 20 % Emulgiermittel in der Trockensubstanz enthielt, bis zur Tropfnässe besprüht. 20 Stunden nach dem Antrocknen des Spritzbelages wurden die Pflanzen mit einer wäßrigen Sporensuspension von Septoria nodorum bis zur Tröpfchenbildung inokuliert und für eine Woche in eine Klimakammer bei Temperaturen zwischen 17 und 19°C und einer relativen Luftfeuchtigkeit von ungefähr 90 bis 95 % gestellt. Dann wurde das Ausmaß der Symptomentwicklung ermittelt.

`COC=C(C(=O)OC)c1ccccc1C=Cc1ccc(Cl)cc1` [A, 2-(β-Methoxy-α-methoxycarbonylvinyl)-4'-chlor-stilben] showed a mortality at 1000 ppm (Prodenia litura) of 0%, a mortality at 2 ppm (Musca domestica) of 0% and a mortality at 1000 ppm (Plutella maculipennis) of 0%. For the same compound, the “% Mort.” value (Ornithodorus moubata; 1000 ppm) was 0%.
Compound `COC=C(C(=O)OC)c1ccccc1Oc1nc2ccccc2o1` [B, α-[2-(Benzoxazol-2'-yl-oxy)-phenyl]-β-methoxy-acrylsäuremethylester] has a mortality at 1000 ppm (Prodenia litura) of 80%, a mortality at 4 ppm (Musca domestica; 4 ppm) of 80% and a mortality at 200 ppm (Plutella maculipennis; 200 ppm) of 0%. The mortality at 1000 ppm (Plutella maculipennis) was 80%, the “% Mort.” value (Ornithodorus moubata; 1000 ppm) was 0% and the mortality at 1000 ppm (Tetranychus telarius; 1000 ppm) was 0%.
With `COC=C(C(=O)OC)c1ccccc1Oc1cncc(Cl)n1` [C, α-2-(6-Chlorpyrazin-2-oxy)-phenyl-β-methoxy-acrylsäuremethylester, reference compound] the “fungizide Wirkung” value (Plasmopara viticola) was 60% and the “fungizide Wirkung” value (Pyrenophora teres) was 55%.
`CO/C=C(/C(=O)OC)c1ccccc1/C=C/c1ccn(-c2ccc(Cl)cc2)c1` [Verbindung Nr. 4, Alpha-2-[2'-(N-para-Chlorphenyl-pyrrol-3''-yl)-ethen-1'-yl]-phenyl-β-methoxy-acrylsäuremethylester] was tested, and the “fungizide Wirkung” value (Septoria nodorum) was 95%, the mortality at 40 ppm (Prodenia litura; 40 ppm) was 100% and the mortality at 2 ppm (Musca domestica) was 100%. For the same compound, the mortality at 100 ppm (Plutella maculipennis; 100 ppm) was 100% and the “% Mort.” value (Ornithodorus moubata; 400 ppm) was 80%.
For `COC=C(C(=O)OC)c1ccccc1C=Cc1cc(C2CC2)no1` [Verbindung Nr. 42, Alpha-2-[2′-(3˝-Cyclopropyl-isoxazol-5˝-yl)-ethen-1′-yl]-phenyl-β-methoxy-acrylsäuremethylester], the “fungizide Wirkung” value (Plasmopara viticola) was 95%.
With `CO/C=C(/C(=O)OC)c1ccccc1/C=C/c1cnn(-c2ccc(C)cc2)c1` [compound 30] the “fungizide Wirkung” value (Plasmopara viticola) was 95%, the “fungizide Wirkung” value (Septoria nodorum) was 95% and the “fungizide Wirkung” value (Pyrenophora teres) was 95%.
`CO/C=C(/C(=O)OC)c1ccccc1/C=C/c1cnn(-c2ccc(Cl)cc2)c1` [compound 31] was tested, and the “fungizide Wirkung” value (Plasmopara viticola) was 95%, the “fungizide Wirkung” value (Septoria nodorum) was 95% and the “fungizide Wirkung” value (Pyrenophora teres) was 95%.
`CO/C=C(/C(=O)OC)c1ccccc1/C=C/c1cc(C(C)C)no1` [compound 41] was tested, and the “fungizide Wirkung” value (Septoria nodorum) was 95%, the “% Mort.” value (Ornithodorus moubata; 1000 ppm) was 80% and the mortality at 100 ppm (Tetranychus telarius) was 100%.
For `CO/C=C(/C(=O)OC)c1ccccc1/C=C/c1cc(-c2ccc(C)cc2)no1` [compound 45], the “fungizide Wirkung” value (Plasmopara viticola) was 95%, the “fungizide Wirkung” value (Pyrenophora teres) was 95% and the “% Mort.” value (Ornithodorus moubata; 1000 ppm) was 60%. For the same compound, the mortality at 40 ppm (Tetranychus telarius; 40 ppm) was 80%.
In the case of `CO/C=C(/C(=O)OC)c1ccccc1/C=C/c1cc(-c2ccc(C#N)cc2)no1` [compound 46], the “fungizide Wirkung” value (Plasmopara viticola) is reported as 95%, the “fungizide Wirkung” value (Pyrenophora teres) is reported as 95% and the mortality at 400 ppm (Tetranychus telarius; 400 ppm) is reported as 100%.
`CO/C=C(/C(=O)OC)c1ccccc1/C=C/c1nnc(C(C)C)o1` [compound 69] was tested, and the “fungizide Wirkung” value (Septoria nodorum) was 95% and the “fungizide Wirkung” value (Pyrenophora teres) was 95%.
`CO/C=C(/C(=O)OC)c1ccccc1/C=C/c1nc(-c2ccc(Cl)cc2)no1` [compound 84] was tested, and the “fungizide Wirkung” value (Septoria nodorum) was 95% and the “fungizide Wirkung” value (Pyrenophora teres) was 95%.
With `CO/C=C(/C(=O)OC)c1ccccc1/C=C/c1cnn(-c2ccc(F)cc2)c1` [compound 98] the “fungizide Wirkung” value (Plasmopara viticola) was 95%, the “fungizide Wirkung” value (Septoria nodorum) was 95% and the “fungizide Wirkung” value (Pyrenophora teres) was 95%.
For `CO/C=C(/C(=O)OC)c1ccccc1/C=C/c1cnn(-c2ccc(Br)cc2)c1` [compound 99], the “fungizide Wirkung” value (Plasmopara viticola) was 95%, the “fungizide Wirkung” value (Septoria nodorum) was 95% and the “fungizide Wirkung” value (Pyrenophora teres) was 95%.
`CO/C=C(/C(=O)OC)c1ccccc1/C=C/c1cc(C)no1` [compound 100] was tested, and the “fungizide Wirkung” value (Plasmopara viticola) was 95% and the “fungizide Wirkung” value (Pyrenophora teres) was 95%.
With `CO/C=C(/C(=O)OC)c1ccccc1/C=C/c1cc(-c2ccccc2)no1` [compound 101] the “fungizide Wirkung” value (Plasmopara viticola) was 95%, the “% Mort.” value (Ornithodorus moubata; 1000 ppm) was 60% and the mortality at 100 ppm (Tetranychus telarius) was 100%.
In the case of `CO/C=C(/C(=O)OC)c1ccccc1/C=C/c1cc(-c2c(F)cccc2Cl)no1` [compound 102], the “fungizide Wirkung” value (Plasmopara viticola) is reported as 95%, the “fungizide Wirkung” value (Septoria nodorum) is reported as 95% and the “fungizide Wirkung” value (Pyrenophora teres) is reported as 95%.
